Experimental data from the supplement of paper PMC13380429.

Key:
Settings in all cases: 72 h
Calu-3 [1] = assay: drug sensitivity score (DSS) for viability; higher = more toxic; extreme values may be limits of the assay
HepG2 [2] = assay: as above
Caco-2 [3] = assay: as above
U2OS [4] = assay: as above
Vero E6 [5] = assay: as above
Calu-3 [6] = assay: relative viability EC50 (midpoint between 100% and the lowest measured viability); higher = less toxic
HepG2 [7] = assay: as above
U2OS [8] = assay: as above
Vero E6 [9] = assay: as above
Calu-3 [10] = assay: cell viability relative to DMSO; higher = less toxic
HepG2 [11] = assay: as above
Caco-2 [12] = assay: as above
U2OS [13] = assay: as above
Vero E6 [14] = assay: as above

Row | SMILES | drug sensitivity score (Calu-3 [1]) | drug sensitivity score (HepG2 [2]) | drug sensitivity score (Caco-2 [3]) | drug sensitivity score (U2OS [4]) | drug sensitivity score (Vero E6 [5]) | relative viability EC50 (Calu-3 [6]) [µM] | relative viability EC50 (HepG2 [7]) [µM] | relative viability EC50 (U2OS [8]) [µM] | relative viability EC50 (Vero E6 [9]) [µM] | cell viability (Calu-3 [10]; 1 nM) [%] | cell viability (Calu-3 [10]; 10 nM) [%] | cell viability (Calu-3 [10]; 100 nM) [%] | cell viability (Calu-3 [10]; 1000 nM) [%] | cell viability (Calu-3 [10]; 10000 nM) [%] | cell viability (HepG2 [11]; 1 nM) [%] | cell viability (HepG2 [11]; 10 nM) [%] | cell viability (HepG2 [11]; 100 nM) [%] | cell viability (HepG2 [11]; 1000 nM) [%] | cell viability (HepG2 [11]; 10000 nM) [%] | cell viability (Caco-2 [12]; 1 nM) [%] | cell viability (Caco-2 [12]; 10 nM) [%] | cell viability (Caco-2 [12]; 100 nM) [%] | cell viability (Caco-2 [12]; 1000 nM) [%] | cell viability (Caco-2 [12]; 10000 nM) [%] | cell viability (U2OS [13]; 1 nM) [%] | cell viability (U2OS [13]; 10 nM) [%] | cell viability (U2OS [13]; 100 nM) [%] | cell viability (U2OS [13]; 1000 nM) [%] | cell viability (U2OS [13]; 10000 nM) [%] | cell viability (Vero E6 [14]; 1 nM) [%] | cell viability (Vero E6 [14]; 10 nM) [%] | cell viability (Vero E6 [14]; 100 nM) [%] | cell viability (Vero E6 [14]; 1000 nM) [%] | cell viability (Vero E6 [14]; 10000 nM) [%]
1 | CCOC(=O)Nc1cc(-c2ccc(C)c(NS(C)(=O)=O)c2)nn2c(C)nnc12 [bromosporine] | 7.9 | 9.4 | 4.8 | 7.6 | 10.4 | 0.624 | 1.02 | 1.57 | 1.05 | 96.8 | 88 | 80.4 | 76.3 | 37.8 | 101 | 98.9 | 102 | 60.8 | 19.5 | 95.5 | 101 | 104 | 81.3 | 55.8 | 96.2 | 99.2 | 91.5 | 79.2 | 18.5 | 95.7 | 101 | 94.7 | 55.5 | 6.3
2 | COc1ccc(C(=O)N2CCCc3cc(C4=NNC(=O)SC4C)ccc32)cc1OC (centres undefined) | 2.9 | 0 | 3.2 | 0 | 3.5 | – | > 10 | > 10 | – | 97.5 | 93.4 | 101 | 87.7 | 70.1 | 83.4 | 80.2 | 95.9 | 90.1 | 81.2 | 95.4 | 94.2 | 89.8 | 83.7 | 71.5 | 96.2 | 104 | 103 | 96.8 | 90.2 | 103 | 100 | 102 | 83.7 | 67.7
3 | CCCCN(Cc1ccc(C(=O)NO)cc1)C(=O)Nc1ccccc1 [nexturastat-A] | 4.4 | 4.7 | 3.8 | 5.1 | 2.3 | – | 1.83 | 1.95 | – | 89.3 | 107 | 98.9 | 88 | 51.7 | 110 | 105 | 97.7 | 90 | 43.9 | 101 | 98.8 | 109 | 92.3 | 52.3 | 98.1 | 102 | 99.3 | 90.1 | 36.6 | 96.2 | 94.5 | 96.7 | 99.4 | 56.6
4 | Cc1csc2c(N[C@@H](C)CN3CCN(S(=O)(=O)c4ccc(Cl)c(Cl)c4)CC3)ncnc12 [LPA2-antagonist-1] | 0 | 12.8 | 3.7 | 2.5 | 1.1 | > 10 | 0.451 | – | > 10 | 90.5 | 104 | 96.9 | 103 | 93.6 | 106 | 97.9 | 93.2 | 36.6 | 18.6 | 96.3 | 107 | 95.3 | 80.9 | 64.4 | 97.6 | 101 | 97.4 | 97 | 58.7 | 95.2 | 97.1 | 102 | 93.2 | 82.5
5 | COc1ccc(CNC(=O)c2cc(-c3cncc(C)c3)ncc2-c2nccs2)nc1OC [MK-3697] | 0 | 0 | – | 0 | 0 | > 10 | > 10 | > 10 | > 10 | 89 | 101 | 83.4 | 92.5 | 99.9 | 99.8 | 91.2 | 94.9 | 98.5 | 105 | – | – | – | – | – | 97.4 | 103 | 94.7 | 99.3 | 99.1 | 103 | 104 | 109 | 111 | 92.7
6 | COc1cc(/C=C2\CCCN([C@@H](C)c3ccc(F)cc3)C2=O)ccc1-n1cnc(C)c1 [E-2012] | 0 | 2.1 | 1.3 | 0 | 0 | > 10 | – | > 10 | > 10 | 102 | 99.2 | 106 | 104 | 114 | 109 | 97.5 | 100 | 99 | 60.1 | 106 | 101 | 94.9 | 98.8 | 72.6 | 103 | 97.7 | 101 | 104 | 97.4 | 93.1 | 104 | 98.7 | 98.8 | 106
7 | COc1cccc(Nc2c(C(N)=O)cnc3c(C)cc(S(=O)(=O)c4cccc(C(=O)N(C)C)c4)cc23)c1 | – | 0 | – | 0 | 0 | – | – | – | – | – | – | – | – | – | – | – | – | – | – | – | – | – | – | – | – | – | – | – | – | – | – | – | – | –
8 | O=C1[C@H](Cc2ccc(O)cc2)N2C(=O)CCN(C(=O)NCc3ccccc3)[C@H]2CN1Cc1cccc2ccccc12 [ICG-001] | 2.4 | 2.7 | 2.7 | – | 0 | – | 3.6 | – | > 10 | 97.4 | 106 | 97.1 | 100 | 53.1 | 102 | 105 | 110 | 105 | 43.5 | 91.5 | 94.2 | 99.7 | 91 | 68.8 | – | – | – | – | – | 90 | 99.2 | 91.3 | 97.2 | 106
9 | COc1ccc(C(=O)CC2(O)C(=O)Nc3c(Cl)ccc(Cl)c32)cc1 (centres undefined) [YK-4-279] | 0.6 | 4.4 | 2.8 | 3.6 | 2.6 | > 10 | 2.47 | 2.5 | 3.34 | 103 | 93.2 | 101 | 106 | 76.4 | 106 | 108 | 99.1 | 94.5 | 34.9 | 105 | 93.1 | 103 | 93.3 | 63.8 | 104 | 97.8 | 106 | 95.6 | 45.7 | 108 | 102 | 102 | 102 | 48.1
10 | Cc1sc2c(c1C)C(c1ccc(Cl)cc1)=N[C@@H](CC(=O)OC(C)(C)C)c1nnc(C)n1-2 [JQ1-(+)] | 6 | 10 | – | 9.2 | 17.3 | – | – | – | – | – | – | – | – | – | – | – | – | – | – | – | – | – | – | – | – | – | – | – | – | – | – | – | – | –
11 | CC(C)(O)c1ccccc1CC[C@@H](SCC1(CC(=O)O)CC1)c1cccc(/C=C/c2ccc3ccc(Cl)cc3n2)c1 [montelukast] | 0 | 0 | – | 0 | 0 | – | – | – | – | – | – | – | – | – | – | – | – | – | – | – | – | – | – | – | – | – | – | – | – | – | – | – | – | –
12 | CC(C)(C)Nc1nc(Nc2ccc(C(N)=O)cc2)cc(N)c1C#N [TC-Mps1-12] | 0 | 8 | 1.8 | 2.6 | 2.1 | > 10 | 0.555 | – | – | 97.5 | 103 | 104 | 109 | 100 | 91.7 | 89.8 | 88.4 | 66.2 | 39.5 | 94.9 | 101 | 102 | 95.9 | 72.1 | 93.6 | 96.6 | 94.8 | 95 | 62.9 | 104 | 102 | 101 | 98.2 | 61.7
13 | CCCCN(CCCC)CCCOC(=O)c1ccc(N)cc1 [butacaine] | 0 | 0 | 0.9 | 0 | 0 | > 10 | > 10 | > 10 | > 10 | 95.9 | 95.3 | 106 | 86.8 | 94.9 | 108 | 93 | 102 | 85.2 | 95.7 | 92.7 | 98.5 | 91.3 | 128 | 65.7 | 92.5 | 99.3 | 95.1 | 102 | 101 | 102 | 90.8 | 99.1 | 92.9 | 92.7
